{"source": "paper PMC10535379", "about": "(Viruses, 2023)", "key": {"[1]": {"tested_on": "FMDV serotype A (NP05)", "test": "microbe, parasite or virus in culture", "assay_type": "cell-based, foot-and-mouth disease virus", "settings": "for EC50: Foot-and-mouth disease virus, BHK-21, read-out: EC50 Co-Treatment"}, "[2]": {"tested_on": "FMDV serotype A (NP05)", "test": "microbe, parasite or virus in culture", "assay_type": "cell-based, foot-and-mouth disease virus", "settings": "for EC50: Foot-and-mouth disease virus, BHK-21, read-out: EC50 Pre-Treatment"}, "[3]": {"tested_on": "FMDV serotype A (NP05)", "assay_type": "cell-based, foot-and-mouth disease virus"}, "[4]": {"tested_on": "FMDV serotype A (NP05)", "assay_type": "cell-based, foot-and-mouth disease virus", "settings": "for Virucidal effect: 50 µM, 0 min"}, "[5]": {"tested_on": "FMDV serotype A (NP05)", "assay_type": "cell-based, foot-and-mouth disease virus", "remark": "listed apart in the source"}, "[6]": {"target": "FMDV 3Cpro (Foot-and-mouth disease virus, UniProt P03306)", "sequence (P03306 1650-1862 limits assumed)": "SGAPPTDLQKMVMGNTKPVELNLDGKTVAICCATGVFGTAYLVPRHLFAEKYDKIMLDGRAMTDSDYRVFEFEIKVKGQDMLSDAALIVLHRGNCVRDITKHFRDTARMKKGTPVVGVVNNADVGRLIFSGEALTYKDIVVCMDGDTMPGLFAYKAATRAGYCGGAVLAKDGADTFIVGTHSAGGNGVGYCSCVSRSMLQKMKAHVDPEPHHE", "test": "cell-based"}, "[7]": {"tested_on": "BHK-21 cells", "settings": "hamster"}, "[8]": {"tested_on": "HEK-293T cells", "settings": "human"}, "[9]": {"target": "carboxypeptidase B", "settings": "cited from earlier work"}, "[10]": {"tested_on": "human respiratory syncytial virus (RSV)", "settings": "read-out: IC50 against RSV; cited from earlier work"}, "[11]": {"test": "in vitro", "settings": "hamster"}, "[12]": {"tested_on": "FMDV serotype A (NP05)", "test": "in vitro", "settings": "hamster"}, "[13]": {"tested_on": "HEP-2 cells", "settings": "human; cited from earlier work"}, "[14]": {"tested_on": "FMDV serotype A (NP05)", "test": "microbe, parasite or virus in culture", "settings": "Foot-and-mouth disease virus, BHK-21, read-out: EC50 Post Entry"}, "[15]": {"tested_on": "FMDV serotype A (NP05)"}, "[16]": {"tested_on": "FMDV", "settings": "cited from earlier work"}, "[17]": {"tested_on": "Saccharomyces cerevisiae", "settings": "cited from earlier work"}, "[18]": {"tested_on": "Schizosaccharomyces pombe", "settings": "cited from earlier work"}, "[19]": {"settings": "HEK-293T, read-out: Inhibition of FMDV 3Cpro"}}, "note": "“Also recorded” adds a separate entry of the source. Where a name gives a salt, the structure may show the parent alone. Read-outs that look alike come from different tables or passages of the source.", "data": [{"smiles": "Oc1ccccc1-c1nc2c3ccccc3c3ccccc3c2[nH]1", "note": "[NSC332670, 6-(1,3-Dihydrophenanthro[9,10-d]imidazol-2-ylidene)cyclohexa-2,4-dien-1-one]", "values": [{"measurement": "EC50", "setting": "[1]", "result": "2.04 ± 0.02", "unit": "µM"}, {"measurement": "EC50", "setting": "[2]", "result": "7.18 ± 0.98", "unit": "µM"}, {"measurement": "Viral load (viral copy number) reduction", "setting": "[3]", "result": "reduce the viral loads in a dose-dependent manner"}, {"measurement": "Reduction of viral titers", "setting": "[4]", "result": "1.17–2.27 log TCID50/mL"}, {"measurement": "Inhibition effect", "setting": "[5]", "result": "reduced; also recorded: completely lost"}, {"measurement": "Viral inhibition", "setting": "[5]", "result": "great inhibition"}, {"measurement": "IC50", "setting": "[6]", "result": 4.21, "unit": "µM"}, {"measurement": "inhibition at 10 µM", "setting": "[6]; [19]", "result": "~90", "unit": "%"}, {"measurement": "inhibition at 40 µM", "setting": "[6]; [19]", "result": 100, "unit": "%"}, {"measurement": "MNTD90 (maximum non-toxic dose)", "setting": "[7]", "result": 50, "unit": "µM"}, {"measurement": "MNTD90 (maximum non-toxic dose)", "setting": "[8]", "result": 50, "unit": "µM"}, {"measurement": "IC50", "setting": "[9]", "result": 1550, "unit": "µM"}, {"measurement": "IC50", "setting": "[10]", "result": 11, "unit": "µM"}, {"measurement": "CC50", "setting": "[11]", "result": "65.82 ± 0.06", "unit": "µM"}, {"measurement": "selectivity ratio", "setting": "[12]", "result": 11.1}, {"measurement": "CC50", "setting": "[13]", "result": 15.3, "unit": "µM"}, {"measurement": "EC50", "setting": "[14]", "result": "5.92 ± 0.2", "unit": "µM"}]}, {"smiles": "O=[N+]([O-])c1ccccc1/C=C/C=N/N=C/c1ccccc1O", "note": "[NSC119805, 2-[(E)-[(E)-[(E)-3-(2-nitrophenyl)prop-2-enylidene]hydrazinylidene]methyl]phenol]", "values": [{"measurement": "EC50 Co-Treatment", "setting": "[1]", "result": "I"}, {"measurement": "EC50 Pre-Treatment", "setting": "[2]", "result": "I"}, {"measurement": "EC50 Post Entry", "setting": "[15]", "result": "I"}, {"measurement": "CC50", "setting": "[11]", "result": "82.45 ± 0.4", "unit": "µM"}]}, {"smiles": "CCN(CC)CCCC(C)NC(=O)c1ccc2c(c1)C(=O)c1ccccc1C2=O", "note": "(stereo not shown) [NSC331757, N-[5-(diethylamino)pentan-2-yl]-9,10-dioxoanthracene-2-carboxamide;hydrochloride]", "values": [{"measurement": "EC50 Co-Treatment", "setting": "[1]", "result": "I"}, {"measurement": "EC50 Pre-Treatment", "setting": "[2]", "result": "I"}, {"measurement": "EC50 Post Entry", "setting": "[15]", "result": "I"}, {"measurement": "CC50", "setting": "[11]", "result": "62.8 ± 0.87", "unit": "µM"}]}, {"smiles": "N#Cc1cc(-c2ccccc2)[nH]c1-c1nccc2ccccc12", "note": "[NSC116640, 2-isoquinolin-1-yl-5-phenyl-1H-pyrrole-3-carbonitrile]", "values": [{"measurement": "EC50", "setting": "[1]", "result": "5.74 ± 0.23", "unit": "µM"}, {"measurement": "EC50", "setting": "[2]", "result": "7.27 ± 0.86", "unit": "µM"}, {"measurement": "Viral load (viral copy number) reduction", "setting": "[3]", "result": "reduce the viral loads in a dose-dependent manner"}, {"measurement": "Reduction of viral titers", "setting": "[4]", "result": "1.00–2.27 log TCID50/mL"}, {"measurement": "Number of viruses", "setting": "[5]", "result": "slightly increased"}, {"measurement": "Virus yield (% of viral copy numbers)", "setting": "[5]", "result": "0–10%"}, {"measurement": "Concentration required for 80% inhibition of FMDV 3Cpro", "setting": "[6]", "result": "more than 40 µM"}, {"measurement": "IC50", "setting": "[6]", "result": 10.8, "unit": "µM"}, {"measurement": "MNTD90 (maximum non-toxic dose)", "setting": "[7]", "result": 50, "unit": "µM"}, {"measurement": "MNTD90 (maximum non-toxic dose)", "setting": "[8]", "result": 50, "unit": "µM"}, {"measurement": "Potent activity in StopGo luciferase anti-FMDV screen", "setting": "[16]", "result": 28.18, "unit": "µM"}, {"measurement": "CC50", "setting": "[11]", "result": "210.7 ± 0.17", "unit": "µM"}, {"measurement": "selectivity ratio", "setting": "[12]", "result": 73.2}, {"measurement": "EC50", "setting": "[14]", "result": "2.88 ± 0.17", "unit": "µM"}]}, {"smiles": "Cc1ccc([N+](=O)[O-])cc1NC(=O)c1cccc([N+](=O)[O-])c1O", "note": "[NSC79451, 2-Hydroxy-N-(2-methyl-5-nitrophenyl)-3-nitrobenzamide]", "values": [{"measurement": "EC50", "setting": "[1]", "result": "1.56 ± 0.03", "unit": "µM"}, {"measurement": "EC50 Pre-Treatment", "setting": "[2]", "result": "I"}, {"measurement": "Virucidal effect", "setting": "[4]", "result": "good inhibition at 0 min"}, {"measurement": "Inhibition of Saccharomyces cerevisiae", "setting": "[17]", "result": "none of them could inhibit"}, {"measurement": "Inhibition of Schizosaccharomyces pombe", "setting": "[18]", "result": "none of them could inhibit"}, {"measurement": "CC50", "setting": "[11]", "result": "32.79 ± 0.3", "unit": "µM"}]}, {"smiles": "N#CC(c1ccccc1)N(CCCCCCN(C(=O)c1ccccc1)C(C#N)c1ccccc1)C(=O)c1ccccc1", "note": "(stereo not shown) [NSC681744, N-[6-[benzoyl-[cyano(phenyl)methyl]amino]hexyl]-N-[cyano(phenyl)methyl]benzamide]", "values": [{"measurement": "EC50", "setting": "[1]", "result": "4.83 ± 0.08", "unit": "µM"}, {"measurement": "EC50 Pre-Treatment", "setting": "[2]", "result": "I"}, {"measurement": "Virucidal effect", "setting": "[4]", "result": "good inhibition at 0 min"}, {"measurement": "Inhibition of Saccharomyces cerevisiae", "setting": "[17]", "result": "none of them could inhibit"}, {"measurement": "Inhibition of Schizosaccharomyces pombe", "setting": "[18]", "result": "none of them could inhibit"}, {"measurement": "CC50", "setting": "[11]", "result": "124 ± 0.5", "unit": "µM"}]}, {"smiles": "COc1cc(/C=N/Nc2nc3c([nH]2)c(=O)n(C)c(=O)n3C)ccc1O", "note": "[NSC64672, 8-[(2E)-2-[(4-hydroxy-3-methoxyphenyl)methylidene]hydrazinyl]-1,3-dimethyl-7H-purine-2,6-dione]", "values": [{"measurement": "EC50 Co-Treatment", "setting": "[1]", "result": "I"}, {"measurement": "EC50 Pre-Treatment", "setting": "[2]", "result": "I"}, {"measurement": "EC50 Post Entry", "setting": "[15]", "result": "I"}, {"measurement": "CC50", "setting": "[11]", "result": "130 ± 2.3", "unit": "µM"}]}]}
